“And” between values parts separate entries of the source, which are not always exact repeats. Equal entries are not always repeated. Numbered stars: 1 amine (or outer) side, 2 acyl side, 3 side chain; on linkers, the order of the positions; unused ones are H or OH. Side chains are listed from the residue outwards. Ends that are not written are not given here. Peptide text beside a SMILES is read from it. * marks the point of attachment. γGlu = O=C(O)[C@H](CCC(=O)[*:2])N[*:1]; Palmitoyl = CCCCCCCCCCCCCCCC(=O)*
Key:
Human GLP1R = Human GLP1R (Homo sapiens, UniProt P43220); assay: cAMP activity assay in assay medium (assay 1); assay type: cell-based; design: expressed in transfected cells; details: assay medium; Table 4; read-out: hGLP1R EC50
Description: (§1) Biological Activity of Peptides in Cell-Based cAMP Activity Assay (Assay 1):
(§2) All sample dilutions were made in duplicate.

Human GlucR = target: T1, Human GlucR (Homo sapiens, UniProt P47871); assay: cAMP activity assay in assay medium (assay 1); assay type: cell-based; details: assay medium; Table 4; read-out: hGlucR EC50
T1 construct: expressed in transfected cells
Description: as §1, §2

Human GIPr = target: T2, Human GIPr (Homo sapiens, UniProt P48546); assay: cAMP activity assay in assay medium (assay 1); assay type: cell-based; details: assay medium; Table 4; read-out: hGIPR EC50
T2 construct: expressed in transfected cells
T2 sequence (P48546 22-466): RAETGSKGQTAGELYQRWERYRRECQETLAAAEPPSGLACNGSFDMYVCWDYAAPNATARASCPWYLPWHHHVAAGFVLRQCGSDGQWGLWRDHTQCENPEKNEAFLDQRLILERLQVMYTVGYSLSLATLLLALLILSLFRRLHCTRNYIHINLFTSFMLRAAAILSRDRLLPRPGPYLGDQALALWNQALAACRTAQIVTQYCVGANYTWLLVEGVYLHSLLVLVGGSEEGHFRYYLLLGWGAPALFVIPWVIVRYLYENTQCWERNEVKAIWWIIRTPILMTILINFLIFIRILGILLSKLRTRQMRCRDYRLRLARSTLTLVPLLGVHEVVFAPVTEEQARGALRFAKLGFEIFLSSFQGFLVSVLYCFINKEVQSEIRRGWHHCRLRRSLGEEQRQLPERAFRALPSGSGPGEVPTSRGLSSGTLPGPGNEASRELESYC
Description: as §1, §2

[1] = rat plasma (frozen blank plasma, thawed); details: 37° C., up to 48 hours
[2] = mouse plasma (frozen blank plasma, thawed); details: 37° C., up to 48 hours
[3] = human plasma (frozen blank plasma, thawed); details: 37° C., up to 48 hours

T1 sequence (P47871 26-477): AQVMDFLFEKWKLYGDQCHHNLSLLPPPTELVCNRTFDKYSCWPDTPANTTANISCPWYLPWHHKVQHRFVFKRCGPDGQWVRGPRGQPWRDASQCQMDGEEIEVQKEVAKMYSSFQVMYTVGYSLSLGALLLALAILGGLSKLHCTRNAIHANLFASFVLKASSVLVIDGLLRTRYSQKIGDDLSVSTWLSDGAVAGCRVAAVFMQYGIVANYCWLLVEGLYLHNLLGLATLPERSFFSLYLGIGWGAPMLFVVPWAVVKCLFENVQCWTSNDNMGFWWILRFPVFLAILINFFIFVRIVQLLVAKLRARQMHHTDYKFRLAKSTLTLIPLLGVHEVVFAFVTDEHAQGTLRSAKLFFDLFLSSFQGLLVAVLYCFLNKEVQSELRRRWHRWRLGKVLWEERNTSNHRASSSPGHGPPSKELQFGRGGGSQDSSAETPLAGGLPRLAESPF
Chain of Human GLP1R (P43220 24-463): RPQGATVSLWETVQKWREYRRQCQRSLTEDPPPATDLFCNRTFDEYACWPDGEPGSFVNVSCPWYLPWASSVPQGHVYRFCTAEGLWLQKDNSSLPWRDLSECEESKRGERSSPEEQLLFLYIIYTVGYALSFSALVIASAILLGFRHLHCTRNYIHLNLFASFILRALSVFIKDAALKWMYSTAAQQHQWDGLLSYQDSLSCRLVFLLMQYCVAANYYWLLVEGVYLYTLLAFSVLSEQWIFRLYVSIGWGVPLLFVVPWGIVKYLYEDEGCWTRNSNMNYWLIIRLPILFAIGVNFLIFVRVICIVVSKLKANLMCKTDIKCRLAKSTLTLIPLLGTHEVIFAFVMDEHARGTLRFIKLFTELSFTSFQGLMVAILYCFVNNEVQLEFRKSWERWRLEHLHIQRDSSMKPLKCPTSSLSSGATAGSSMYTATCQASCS

Row | Molecule | EC50 (Human GLP1R) | EC50 (Human GlucR) | EC50 (Human GIPr) | fragment found [1] | fragment found [2] | not cleaved [3]
1 | CCCCCCCCCCCCCCCC(=O)N[C@@H](CCC(=O)NCCCC[C@H](NC(=O)[C@H](CCCNC(=N)N)NC(=O)[C@H](CO)NC(=O)[C@H](Cc1ccc(O)cc1)NC(=O)[C@H](CC(=O)O)NC(=O)[C@H](CO)NC(=O)[C@@H](NC(=O)[C@H](Cc1ccccc1)NC(=O)[C@@H](NC(=O)CNC(=O)[C@H](CCC(N)=O)NC(=O)[C@H](CO)NC(=O)[C@@H](N)Cc1c[nH]cn1)[C@@H](C)O)[C@@H](C)O)C(=O)N[C@@H](CC(C)C)C(=O)N[C@@H](CC(=O)O)C(=O)N[C@@H](CO)C(=O)N[C@@H](CCC(=O)O)C(=O)N[C@@H](CCCNC(=N)N)C(=O)N[C@@H](C)C(=O)N[C@@H](CCCNC(=N)N)C(=O)N[C@@H](CC(=O)O)C(=O)N[C@@H](Cc1ccccc1)C(=O)N[C@H](C(=O)N[C@@H](C)C(=O)N[C@@H](Cc1c[nH]c2ccccc12)C(=O)N[C@@H](CC(C)C)C(=O)N[C@H](C(=O)N[C@@H](C)C(=O)NCC(=O)NCC(=O)O)C(C)C)C(C)C)C(=O)O [g842] (H-HSQGTFTSDYSRK([γGlu-Palmitoyl])LDSERARDFVAWLVAGG-OH; N-terminus assumed) | 0.0512 nM | 0.00831 nM | 88.3 nM |  |  | 
2 | CCCCCCCCCCCCCCCC(=O)N[C@@H](CCC(=O)NCCCC[C@H](NC(=O)[C@H](Cc1ccc(O)cc1)NC(=O)[C@H](CCC(=O)O)NC(=O)[C@H](CO)NC(=O)[C@H](Cc1ccc(O)cc1)NC(=O)[C@H](CC(=O)O)NC(=O)[C@H](CO)NC(=O)[C@@H](NC(=O)[C@H](Cc1ccccc1)NC(=O)[C@@H](NC(=O)CNC(=O)[C@H](CCC(N)=O)NC(=O)[C@H](CO)NC(=O)[C@@H](N)Cc1c[nH]cn1)[C@@H](C)O)[C@@H](C)O)C(=O)N[C@@H](CC(=O)O)C(=O)N[C@@H](CO)C(=O)N[C@@H](CCC(=O)O)C(=O)N[C@@H](CCCNC(=N)N)C(=O)N[C@@H](C)C(=O)N[C@@H](CCCNC(=N)N)C(=O)N[C@@H](CC(=O)O)C(=O)N[C@@H](Cc1ccccc1)C(=O)N[C@H](C(=O)N[C@@H](C)C(=O)N[C@@H](Cc1c[nH]c2ccccc12)C(=O)N[C@@H](CC(C)C)C(=O)N[C@H](C(=O)N[C@@H](C)C(=O)NCC(=O)NCC(N)=O)C(C)C)C(C)C)C(=O)O [g846] (H-HSQGTFTSDYSEYK([γGlu-Palmitoyl])DSERARDFVAWLVAGG-NH2; N-terminus assumed) | 0.0438 nM | 0.0341 nM | 11.8 nM |  |  | 
3 | CCCCCCCCCCCCCCCC(=O)N[C@@H](CCC(=O)NCCCC[C@H](NC(=O)[C@H](CO)NC(=O)[C@H](CC(=O)O)NC(=O)[C@H](CC(C)C)NC(=O)[C@H](Cc1ccc(O)cc1)NC(=O)[C@H](CCCCN)NC(=O)[C@H](CO)NC(=O)[C@H](Cc1ccc(O)cc1)NC(=O)[C@H](CC(=O)O)NC(=O)[C@H](CO)NC(=O)[C@@H](NC(=O)[C@H](Cc1ccccc1)NC(=O)[C@@H](NC(=O)CNC(=O)[C@H](CCC(N)=O)NC(=O)[C@H](CO)NC(=O)[C@@H](N)Cc1c[nH]cn1)[C@@H](C)O)[C@@H](C)O)C(=O)N[C@@H](CCCNC(=N)N)C(=O)N[C@@H](C)C(=O)N[C@@H](CCCNC(=N)N)C(=O)N[C@@H](CC(=O)O)C(=O)N[C@@H](Cc1ccccc1)C(=O)N[C@H](C(=O)N[C@@H](C)C(=O)N[C@@H](Cc1c[nH]c2ccccc12)C(=O)N[C@@H](CC(C)C)C(=O)N[C@H](C(=O)N[C@@H](C)C(=O)NCC(=O)NCC(N)=O)C(C)C)C(C)C)C(=O)O [g867] (H-HSQGTFTSDYSKYLDSK([γGlu-Palmitoyl])RARDFVAWLVAGG-NH2; N-terminus assumed) | 0.0448 nM | 0.00704 nM | 41.7 nM |  |  | 
4 | CCCCCCCCCCCCCCCC(=O)N[C@@H](CCC(=O)NCCCC[C@H](NC(=O)[C@H](Cc1ccc(O)cc1)NC(=O)[C@H](CCC(=O)O)NC(=O)[C@H](CO)NC(=O)[C@H](Cc1ccc(O)cc1)NC(=O)[C@H](CC(=O)O)NC(=O)[C@H](CO)NC(=O)[C@@H](NC(=O)[C@H](Cc1ccccc1)NC(=O)[C@@H](NC(=O)CNC(=O)[C@H](CCC(N)=O)NC(=O)[C@H](CO)NC(=O)[C@@H](N)Cc1c[nH]cn1)[C@@H](C)O)[C@@H](C)O)C(=O)N[C@@H](CC(=O)O)C(=O)N[C@@H](CO)C(=O)N[C@@H](CCCNC(=N)N)C(=O)N[C@@H](CCCNC(=N)N)C(=O)N[C@@H](C)C(=O)N[C@@H](CCCNC(=N)N)C(=O)N[C@@H](CC(=O)O)C(=O)N[C@@H](Cc1ccccc1)C(=O)N[C@H](C(=O)N[C@@H](CCC(=O)O)C(=O)N[C@@H](Cc1c[nH]c2ccccc12)C(=O)N[C@@H](CC(C)C)C(=O)N[C@@H](CCC(=O)O)C(=O)N[C@@H](C)C(=O)NCC(=O)NCC(N)=O)C(C)C)C(=O)O [g876] (H-HSQGTFTSDYSEYK([γGlu-Palmitoyl])DSRRARDFVEWLEAGG-NH2; N-terminus assumed) | 0.0863 nM | 0.0104 nM | 79 nM |  |  | 
5 | HSQGTFTSDXSEYLDSERARDFVAWLEAGG-amide ×10 = K(gE-palm) |  |  |  | DPP cleaved product, minor | DPP cleaved product, minor | 
6 | HSQGTFTSDXSRYLDSRSARDFVAWLEAGG-amide ×10 = K(gE-palm) |  |  |  | DPP cleaved product | DPP cleaved product | 100% stable peptide at 24 h
7 | HSQGTFTSDYSKXLDSERARDFVAWLVAGG-amide ×13 = K(gE-palm) |  |  |  | DPP cleaved product | DPP cleaved product and +1 DPP cleaved product | 100% stable peptide at 24 h
8 | HSQGTFTSDYSKYLDSERARDFVAWLEAGG-NH2 [g840] | 0.145 nM | 0.0053 nM | 102 nM |  |  | 
9 | HSQGTFTSDYSKYLDSRRAQDFVQWLVRGGKNNRNNIAK-NH2 [g321] | 0.0272 nM | 0.0279 nM | 6.41 nM |  |  | 
